Activity data for eleven compounds are collected here from ChEMBL document CHEMBL1138991, “(+)-12alpha-Hydroxysophocarpine, a new quinolizidine alkaloid and related anti-HBV alkaloids from Sophora flavescens” (2006).

Assay [1] relates to Hepatitis B virus. In words: Inhibition of HBeAg release against HBV in HepG2 2.2.15 cell line at 0.1 umol/mL. In kind it is functional. Further details: scale not given: the % may be the effect or the level left.
In assay [2] the test system is HepG2. Briefly: Cytotoxicity against HepG2 2.2.15 cell line at 0.4 umol/mL by MTT assay. Type of assay: functional, Homo sapiens.
The test system of assay [3] is Hepatitis B virus. In words: Inhibition of HBsAg release against HBV in HepG2 2.2.15 cell line at 0.1 umol/mL. In kind it is functional. Further details: scale not given: the % may be the effect or the level left.
Assay [4] relates to Hepatitis B virus. In words: Inhibition of HBsAg release against HBV in HepG2 2.2.15 cell line at 0.2 umol/mL. Further details: scale not given: the % may be the effect or the level left. Type of assay: functional.
Assay [5] concerns Hepatitis B virus. In words: Inhibition of HBeAg release against HBV in HepG2 2.2.15 cell line at 0.2 umol/mL. Type of assay: functional. Further details: scale not given: the % may be the effect or the level left.
In assay [6] the test system is Hepatitis B virus. Briefly: Inhibition of HBsAg release against HBV in HepG2 2.2.15 cell line at 0.4 umol/mL. In kind it is functional. On the set-up: scale not given: the % may be the effect or the level left.
In assay [7] the test system is Hepatitis B virus. Briefly: Inhibition of HBsAg release against HBV in HepG2 2.2.15 cell line at 0.8 umol/mL. Further details: scale not given: the % may be the effect or the level left. In kind it is functional.
Assay [8] concerns HepG2. Briefly: Cytotoxicity against HepG2 2.2.15 cell line at 1.6 umol/mL by MTT assay. In kind it is functional, cell-based. The conditions noted are these: Homo sapiens.
The subject of assay [9] is Hepatitis B virus. Briefly: Inhibition of HBeAg release against HBV in HepG2 2.2.15 cell line at 0.8 umol/mL. In kind it is functional. On the set-up: scale not given: the % may be the effect or the level left.
The test system of assay [10] is Hepatitis B virus. Briefly: Inhibition of HBeAg release against HBV in HepG2 2.2.15 cell line at 0.4 umol/mL. In kind it is functional. On the set-up: scale not given: the % may be the effect or the level left.
In assay [11] the test system is HepG2. In words: Cytotoxicity against HepG2 2.2.15 cell line at 0.8 umol/mL by MTT assay. Type of assay: functional, cell-based. The conditions noted are these: Homo sapiens.

The source made the active and inactive calls. The calls are words filed in the database; no cut-off is given here. Where only a bound is given, the exact number is not on record here.

Consider `O=C1CCC[C@@H]2[C@H]3CCCN4CCC[C@@H](CN12)[C@H]34`, for which the Activity is reported as 9.6% in the assay with Hepatitis B virus [1]; “>=25%” in the assay with HepG2 [2]; 25.1% in the assay with Hepatitis B virus [3]; 27.7% in the assay on Hepatitis B virus [4]; 10.8% in the assay on Hepatitis B virus [5].
As for `O=C1C=CC[C@@H]2[C@H]3CCCN4CCC[C@H](CN12)[C@@H]34`, the Activity amounted to 0% in the assay on Hepatitis B virus [1]; 78.2% in the assay on Hepatitis B virus [6]; 79.3% in the assay with Hepatitis B virus [7]; 27.6% with Hepatitis B virus [9]; 17.9% in the assay on Hepatitis B virus [3]; 63.4% in the assay on Hepatitis B virus [4]. The Activity in the assay with Hepatitis B virus [10] is on record as 22.4%; with Hepatitis B virus [5] it was 6.8%. In the assay with HepG2 [8], the outcome was Active.
For `O=C1CC=C[C@@H]2[C@H]3CCCN4CCC[C@@H](CN12)[C@@H]34`, the Activity is listed as 22.6% in the assay with Hepatitis B virus [1]; “>=25%” in the assay on HepG2 [2]; 25.1% in the assay on Hepatitis B virus [3]; 52.6% in the assay with Hepatitis B virus [4]; 25.4% in the assay with Hepatitis B virus [5].
In the same order, the values of `O=C1C=CC[C@@H]2[C@H]3C[C@H](O)CN4CCC[C@@H](CN12)[C@@H]34` are 0%, “>=25%”, 0%, 24.5% and 5.7%.
In the same order, the values of `O=C1C=CC[C@@H]2[C@H]3CCCN4CCC[C@@H](CN12)[C@@H]34` [SOPHOCARPINE] are 31.4%, “>=25%”, 21.6%, 57.2% and 34.6%.
On to `O=C1C=C[C@H](O)[C@@H]2[C@H]3CCCN4CCC[C@@H](CN12)[C@@H]34`, for which the Activity is listed as 0% in the assay on Hepatitis B virus [1]; “>=25%” in the assay on HepG2 [2]; 28% in the assay with Hepatitis B virus [3]; 40.8% in the assay on Hepatitis B virus [4]; 4.6% in the assay on Hepatitis B virus [5].
As for `O=C1C=CC[C@@H]2[C@H]3CCC[N+]4([O-])CCC[C@@H](CN12)[C@@H]34` (some centres undefined) [OXYSOPHOCARPINE], the Activity in the assay with Hepatitis B virus [1] is reported as 22.4%; with HepG2 [2] it was “>=25%”; with Hepatitis B virus [3] it was 39.9%; with Hepatitis B virus [4], 48.3%; in the assay with Hepatitis B virus [5], 24.6%.
For the compound `O=C1CCC[C@@H]2[C@H]3CCC[N+]4([O-])CCC[C@@H](CN12)[C@@H]34` (some centres undefined) [OXYMATRINE], the Activity was 15.8% in the assay on Hepatitis B virus [1]; “>=25%” in the assay with HepG2 [2]; 35.3% in the assay on Hepatitis B virus [3]; 39.7% with Hepatitis B virus [4]; 17.1% in the assay with Hepatitis B virus [5].
In the same order, the values of `O=C1CCC[C@@H]2[C@H]3C[C@H](O)CN4CCC[C@@H](CN12)[C@@H]34` are 13.3%, “>=25%”, 18.1%, 31.6% and 19.5%.
As to `O=c1cccc2n1C[C@H]1C[C@H]2CN2CCCC[C@H]12`, the Activity in the assay on Hepatitis B virus [6] is reported as 33.1%; in the assay with Hepatitis B virus [4], 19.8%; with Hepatitis B virus [10], 0%; in the assay on Hepatitis B virus [5], 0%. Further, the outcome in the assay with HepG2 [11] was Active.
Take `O=C1CCC[C@@H]2[C@H]3CCCN4CCC[C@@H](CN12)[C@@H]34` [MATRINE]: the Activity is given as 0% in the assay on Hepatitis B virus [1]; “>=25%” with HepG2 [2]; 8.9% in the assay on Hepatitis B virus [3]; 30.9% in the assay with Hepatitis B virus [4]; 2.7% in the assay on Hepatitis B virus [5].
